Data on one compound can be found in patent US8962558B2, “Methods for reducing GnRH-positive tumor cell proliferation using the GnRH antagonist IN3” (priority 1997, dated 2015).

The test system of one test is BLM melanoma cells. Briefly: Cell proliferation studies, BLM cells. The settings on record: 10^−11-10^−6 M, daily for 7 days. It counts as cell-based, human. As for the experimental part: BLM cells were plated at a density of 700 cells/cm^2 in […] in culture medium. Cells were allowed to attach and start growing for 3 days; the seeding media were then changed. Cells were treated daily (the drug was added to the medium every day), for 7 days, with LHRH-A (10^−11-10^−6 M); the medium was changed at every two days. At the end of the treatment, cells were collected and counted by hemocytometer.
To confirm the specificity of the action of LHRH-A on melanoma cell proliferation, it was investigated whether the effects of the LHRH agonist might be counteracted by a potent GnRH antagonist. A preliminary experiment was performed to select the dose of the GnRH antagonist (ANT) to be used. To this purpose, BLM cells were treated daily with ANT at different doses (10^−11-10^−6 M).) Cells were harvested and counted after 7 days of treatment. Subsequently, BLM cells were treated daily, for 7 days, with LHRH-A (10^−7 M), either in the absence or in the presence of ANT (10^−7 M). Cells were counted 7 days after the beginning of the treatment.
All proliferation experiments were performed in four to six replicates. The data obtained from three independent experiments were analyzed according to the Dunnett's test after one-way ANOVA.

The subject of the next test is BLM cells. Put plainly: In vivo study in nude mice inoculated with malignant melanoma, low dosage experiment. The settings on record: 100 μg per mouse daily, 2-3 weeks. As for the experimental part: Sixteen male nude mice were injected s.c. in the flank with 1×10^6 (0.2 ml/mouse) BLM cells. The treatment started the same day: Eight mice received daily 100 μg […]® per mouse in 200 μl saline. Eight control mice were treated with 200 μl saline each. The treatment lasted 2-3 weeks. Every 2 to 3 days the volume of the tumors was determined by caliper.

In the next test the test system is Glioblastoma multiforme. Briefly: Phase II study with ZOLADEX (Example 7). It counts as in vivo, human. The protocol:
Patients with histologically confirmed Glioblastoma multiforme following a first operation were treated (also randomized controlled) with ZOLADEX® in the manner described by Jonat et al., 1995, European J. Cancer, 137-142. Following radiotherapy, the patients are assigned to two different groups. One group received treatment, for example with ZOLADEX® and one group without ZOLADEX® (or with Cetrorelix® and without Cetrorelix®, or with ANTIDE® and without ANTIDE®, or with […]® or without […]® etc.). The resulting clinical effects are similar to metastasized […] mammary carcinoma. The percentage of patients showing an actual significant therapy effect is evaluated according to the criteria of tumor volume, recidivation-free survival, overall survival following initial application of the compound, and Karnofsky and Spitzer indices in a clinical neurological examination and under consideration of the other examination criteria (Sposto, R., et al., 1989, J. Neurooncology, 7, 165-177, and Kirby, S., et al., 1995, J. Natl. Cancer Institute, 87, 1884-1888, 1995).

The subject of the next test is U-87MG cells. It is filed as cell-based, human. Conditions: for inhibition versus controls: 7 days. The protocol: U-87MG cells were plated at a density of 1400 cells/cm^2 in […] in standard culture medium. Cells were allowed to attach and start growing for 3 days; the seeding media were then changed to experimental media. Cells were treated for 7 days with ZOLADEX® (10^−10-10^−6 M); medium was changed every two days. Following treatment, cells were collected and counted by hemocytometer. Data obtained from three independent experiments were analyzed according to the Dunnett's test after one-way ANOVA.

A further test has as its system Me15392 melanoma cells. Put plainly: Cell proliferation studies, Me15392 cells. It is filed as cell-based, human. The settings on record: 10^−11-10^−6 M, 7 days. As for the experimental part: The antiproliferative action of GnRH agonists on melanoma cells is further investigated in another melanoma cell line (Me15392). These experiments have been carried out as described above for BLM cells (same GnRH agonist, same doses of the drug and same length of treatment, etc.). All proliferation experiments were performed in four to six replicates. The data obtained from three independent experiments were analyzed according to the Dunnett's test after one-way ANOVA.

Each structure is given as a SMILES string. Read-outs that look alike come from different tables or passages of the source.

Regarding `CC(C)C[C@H](NC(=O)[C@@H](COC(C)(C)C)NC(=O)[C@H](Cc1ccc(O)cc1)NC(=O)[C@H](CO)NC(=O)[C@H](Cc1c[nH]c2ccccc12)NC(=O)[C@H](Cc1cnc[nH]1)NC(=O)[C@@H]1CCC(=O)N1)C(=O)N[C@@H](CCCNC(=N)N)C(=O)N1CCC[C@H]1C(=O)NNC(N)=O` [ZOLADEX®, D-Ser(tBu)^6Aza-Gly-LHRH], the cell proliferation result with BLM melanoma cells was “significant and dose-dependent inhibition of cell proliferation”; in the test with Me15392 melanoma cells it was “significant and dose-dependent inhibition of cell proliferation”. Besides, the “tumors smaller with respect to the controls” value in the test on BLM cells was 15-20%. Moreover, the “reduction in tumor volume vs untreated control group” value in the test with Glioblastoma multiforme (MRT and/or CAT scans) is “significantly higher reduction in tumor volume”. Besides, the “overall survival following initial application vs untreated control group” value with Glioblastoma multiforme (in vivo) is given as “significantly longer overall survival”. The “recidivation-free survival vs untreated control group” value in the test on Glioblastoma multiforme (in vivo) is listed as “significantly longer recidivation-free survival”. In addition, the inhibition versus controls entry in the test on U-87MG cells (10^−6M) was “about 45%”; with U-87MG cells (10^−8M) it was “about 23%”. Besides, the proliferation rate entry in the test with U-87MG cells (significantly effective at 10^−8 to 10^−6 M) is “significant decrease of the proliferation rate”.
